In paper PMC11480411, “Mucosal sugars delineate pyrazine vs pyrazinone autoinducer signaling in Klebsiella oxytoca” (Nature Communications, 2024):

Legend:
Experiment in all cases: PRESTO-Tango GPCR screen
Type in all cases: cell-based
Details in all cases: 100 µM
GPR82 = target: T1, GPR82 (Homo sapiens, UniProt Q96P67)
T1 construct: purchased PRESTO-Tango GPCR kit (Roth lab / Addgene)
In short: (§1)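 A Tango reporter setup in HTLA cells was used, with each receptor introduced by transient transfection. Compound exposure lasted 20 h at 100 μM final, followed by Bright-Glo luminescence measurement; activation was expressed relative to PBS-treated wells.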

GPR156 = target: T2, GPR156 (Homo sapiens, UniProt Q8NFN8)
T2 construct: purchased PRESTO-Tango GPCR kit (Roth lab / Addgene)
In short: as §1

GRM8 = target: T3, GRM8 (Homo sapiens, UniProt O00222)
T3 construct: purchased PRESTO-Tango GPCR kit (Roth lab / Addgene)
In short: as §1

MAS1L = target: T4, MAS1L (Homo sapiens, UniProt P35410)
T4 construct: purchased PRESTO-Tango GPCR kit (Roth lab / Addgene)
In short: as §1

GPR44 = target: T5, GPR44 (Homo sapiens, UniProt Q9Y5Y4)
T5 construct: purchased PRESTO-Tango GPCR kit (Roth lab / Addgene)
In short: as §1

GPR111 = target: T6, GPR111 (Homo sapiens, UniProt Q8IZF7)
T6 construct: purchased PRESTO-Tango GPCR kit (Roth lab / Addgene)
In short: as §1

PTGER2 = target: T7, PTGER2 (Homo sapiens, UniProt P43116)
T7 construct: purchased PRESTO-Tango GPCR kit (Roth lab / Addgene)
In short: as §1

DRD4 = target: T8, DRD4 (Homo sapiens, UniProt P21917)
T8 construct: purchased PRESTO-Tango GPCR kit (Roth lab / Addgene)
In short: as §1

MC1R = target: T9, MC1R (Homo sapiens, UniProt Q01726)
T9 construct: purchased PRESTO-Tango GPCR kit (Roth lab / Addgene)
In short: as §1

CCR8 = target: T10, CCR8 (Homo sapiens, UniProt P51685)
T10 construct: purchased PRESTO-Tango GPCR kit (Roth lab / Addgene)
In short: as §1

MC4R = target: T11, MC4R (Homo sapiens, UniProt P32245)
T11 construct: purchased PRESTO-Tango GPCR kit (Roth lab / Addgene)
In short: as §1

CHRM4 = target: T12, CHRM4 (Homo sapiens, UniProt P08173)
T12 construct: purchased PRESTO-Tango GPCR kit (Roth lab / Addgene)
In short: as §1

PTGDR = target: T13, PTGDR (Homo sapiens, UniProt Q13258)
T13 construct: purchased PRESTO-Tango GPCR kit (Roth lab / Addgene)
In short: as §1

CXCR1 = target: T14, CXCR1 (Homo sapiens, UniProt P25024)
T14 construct: purchased PRESTO-Tango GPCR kit (Roth lab / Addgene)
In short: as §1

P2RY6 = target: T15, P2RY6 (Homo sapiens, UniProt Q15077)
T15 construct: purchased PRESTO-Tango GPCR kit (Roth lab / Addgene)
In short: as §1

GPR110 = target: T16, GPR110 (Homo sapiens, UniProt Q5T601)
T16 construct: purchased PRESTO-Tango GPCR kit (Roth lab / Addgene)
In short: as §1

PTH1R = target: T17, PTH1R (Homo sapiens, UniProt Q03431)
T17 construct: purchased PRESTO-Tango GPCR kit (Roth lab / Addgene)
In short: as §1

GPR132 = target: T18, GPR132 (Homo sapiens, UniProt Q9UNW8)
T18 construct: purchased PRESTO-Tango GPCR kit (Roth lab / Addgene)
In short: as §1

GPR22 = target: T19, GPR22 (Homo sapiens, UniProt Q99680)
T19 construct: purchased PRESTO-Tango GPCR kit (Roth lab / Addgene)
In short: as §1

MRGPRG = target: T20, MRGPRG (Homo sapiens, UniProt Q86SM5)
T20 construct: purchased PRESTO-Tango GPCR kit (Roth lab / Addgene)
In short: as §1

CXCR4 = target: T21, CXCR4 (Homo sapiens, UniProt P61073)
T21 construct: purchased PRESTO-Tango GPCR kit (Roth lab / Addgene)
In short: as §1

SCTR = target: T22, SCTR (Homo sapiens, UniProt P47872)
T22 construct: purchased PRESTO-Tango GPCR kit (Roth lab / Addgene)
In short: as §1

DRD1 = target: T23, DRD1 (Homo sapiens, UniProt P21728)
T23 construct: purchased PRESTO-Tango GPCR kit (Roth lab / Addgene)
In short: as §1

GPR161 = target: T24, GPR161 (Homo sapiens, UniProt Q8N6U8)
T24 construct: purchased PRESTO-Tango GPCR kit (Roth lab / Addgene)
In short: as §1

HTR2C = target: T25, HTR2C (Homo sapiens, UniProt P28335)
T25 construct: purchased PRESTO-Tango GPCR kit (Roth lab / Addgene)
In short: as §1

MRGPRX3 = target: T26, MRGPRX3 (Homo sapiens, UniProt Q96LB0)
T26 construct: purchased PRESTO-Tango GPCR kit (Roth lab / Addgene)
In short: as §1

GRM2 = target: T27, GRM2 (Homo sapiens, UniProt Q14416)
T27 construct: purchased PRESTO-Tango GPCR kit (Roth lab / Addgene)
In short: as §1

GPR37 = target: T28, GPR37 (Homo sapiens, UniProt O15354)
T28 construct: purchased PRESTO-Tango GPCR kit (Roth lab / Addgene)
In short: as §1

HTR7 = target: T29, HTR7 (Homo sapiens, UniProt P34969)
T29 construct: purchased PRESTO-Tango GPCR kit (Roth lab / Addgene)
In short: as §1

MRGPRX4 = target: T30, MRGPRX4 (Homo sapiens, UniProt Q96LA9)
T30 construct: purchased PRESTO-Tango GPCR kit (Roth lab / Addgene)
In short: as §1

ADRA1A = target: T31, ADRA1A (Homo sapiens, UniProt P35348)
T31 construct: purchased PRESTO-Tango GPCR kit (Roth lab / Addgene)
In short: as §1

LPAR2 = target: T32, LPAR2 (Homo sapiens, UniProt Q9HBW0)
T32 construct: purchased PRESTO-Tango GPCR kit (Roth lab / Addgene)
In short: as §1

GLP1R = target: T33, GLP1R (Homo sapiens, UniProt P43220)
T33 construct: purchased PRESTO-Tango GPCR kit (Roth lab / Addgene)
In short: as §1

GPR141 = target: T34, GPR141 (Homo sapiens, UniProt Q7Z602)
T34 construct: purchased PRESTO-Tango GPCR kit (Roth lab / Addgene)
In short: as §1

HTR2B = target: T35, HTR2B (Homo sapiens, UniProt P41595)
T35 construct: purchased PRESTO-Tango GPCR kit (Roth lab / Addgene)
In short: as §1

DRD5 = target: T36, DRD5 (Homo sapiens, UniProt P21918)
T36 construct: purchased PRESTO-Tango GPCR kit (Roth lab / Addgene)
In short: as §1

T34 sequence (Q7Z602 whole entry): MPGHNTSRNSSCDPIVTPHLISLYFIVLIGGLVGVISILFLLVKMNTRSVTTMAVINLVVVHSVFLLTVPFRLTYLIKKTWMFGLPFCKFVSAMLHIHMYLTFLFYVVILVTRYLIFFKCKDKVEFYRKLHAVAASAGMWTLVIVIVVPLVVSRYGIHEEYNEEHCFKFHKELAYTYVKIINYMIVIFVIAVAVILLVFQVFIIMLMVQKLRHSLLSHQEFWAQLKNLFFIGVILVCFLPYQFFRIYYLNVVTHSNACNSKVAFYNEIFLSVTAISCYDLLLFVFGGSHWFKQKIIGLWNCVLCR
T25 sequence (P28335 33-458): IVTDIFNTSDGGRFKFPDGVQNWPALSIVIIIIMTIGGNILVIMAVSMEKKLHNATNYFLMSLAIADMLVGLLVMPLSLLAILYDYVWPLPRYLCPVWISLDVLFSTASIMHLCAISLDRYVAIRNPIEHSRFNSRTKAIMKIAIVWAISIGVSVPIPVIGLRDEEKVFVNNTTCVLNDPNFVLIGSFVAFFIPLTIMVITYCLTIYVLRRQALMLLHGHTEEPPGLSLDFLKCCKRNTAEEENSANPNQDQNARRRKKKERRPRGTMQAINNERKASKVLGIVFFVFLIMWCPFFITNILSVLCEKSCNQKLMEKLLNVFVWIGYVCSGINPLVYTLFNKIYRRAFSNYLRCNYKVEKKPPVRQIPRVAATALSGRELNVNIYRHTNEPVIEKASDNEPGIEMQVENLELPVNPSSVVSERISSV
T24 sequence (Q8N6U8 whole entry): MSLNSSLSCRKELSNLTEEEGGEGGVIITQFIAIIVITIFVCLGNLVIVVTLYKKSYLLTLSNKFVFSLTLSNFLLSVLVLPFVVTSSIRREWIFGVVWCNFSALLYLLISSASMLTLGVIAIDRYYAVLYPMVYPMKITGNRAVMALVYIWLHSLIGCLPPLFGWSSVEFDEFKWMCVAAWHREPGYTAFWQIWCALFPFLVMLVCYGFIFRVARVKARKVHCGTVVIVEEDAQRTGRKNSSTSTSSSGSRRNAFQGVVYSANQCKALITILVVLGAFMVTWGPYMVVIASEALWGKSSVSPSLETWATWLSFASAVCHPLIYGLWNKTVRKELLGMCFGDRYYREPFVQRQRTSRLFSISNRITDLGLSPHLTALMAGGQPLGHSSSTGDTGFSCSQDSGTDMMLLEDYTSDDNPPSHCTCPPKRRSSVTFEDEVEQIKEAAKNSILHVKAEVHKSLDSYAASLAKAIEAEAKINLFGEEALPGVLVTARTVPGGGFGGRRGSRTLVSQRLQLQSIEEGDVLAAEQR
T29 sequence (P34969 whole entry): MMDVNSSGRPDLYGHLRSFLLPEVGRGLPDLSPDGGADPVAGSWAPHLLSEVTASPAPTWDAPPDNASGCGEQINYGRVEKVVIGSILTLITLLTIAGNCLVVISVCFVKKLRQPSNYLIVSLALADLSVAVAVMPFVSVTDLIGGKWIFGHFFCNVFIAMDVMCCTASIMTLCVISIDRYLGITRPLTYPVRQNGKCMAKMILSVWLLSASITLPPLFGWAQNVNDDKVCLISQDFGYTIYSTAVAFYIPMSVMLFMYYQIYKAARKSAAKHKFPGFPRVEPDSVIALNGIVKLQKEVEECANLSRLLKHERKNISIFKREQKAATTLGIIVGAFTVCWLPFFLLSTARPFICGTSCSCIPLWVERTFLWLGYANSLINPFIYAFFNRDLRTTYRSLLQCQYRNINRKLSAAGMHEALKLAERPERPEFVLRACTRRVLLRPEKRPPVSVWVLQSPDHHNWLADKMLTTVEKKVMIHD
T21 sequence (P61073 whole entry): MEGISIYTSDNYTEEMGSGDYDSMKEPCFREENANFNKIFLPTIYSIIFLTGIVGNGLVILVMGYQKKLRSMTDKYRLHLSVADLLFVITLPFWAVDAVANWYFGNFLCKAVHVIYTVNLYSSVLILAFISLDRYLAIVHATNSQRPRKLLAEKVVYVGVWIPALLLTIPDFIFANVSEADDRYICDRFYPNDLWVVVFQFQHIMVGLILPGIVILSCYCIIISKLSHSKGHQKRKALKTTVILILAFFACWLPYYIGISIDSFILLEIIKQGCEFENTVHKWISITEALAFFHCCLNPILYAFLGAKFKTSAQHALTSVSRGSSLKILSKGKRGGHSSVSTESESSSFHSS
T23 sequence (P21728 whole entry): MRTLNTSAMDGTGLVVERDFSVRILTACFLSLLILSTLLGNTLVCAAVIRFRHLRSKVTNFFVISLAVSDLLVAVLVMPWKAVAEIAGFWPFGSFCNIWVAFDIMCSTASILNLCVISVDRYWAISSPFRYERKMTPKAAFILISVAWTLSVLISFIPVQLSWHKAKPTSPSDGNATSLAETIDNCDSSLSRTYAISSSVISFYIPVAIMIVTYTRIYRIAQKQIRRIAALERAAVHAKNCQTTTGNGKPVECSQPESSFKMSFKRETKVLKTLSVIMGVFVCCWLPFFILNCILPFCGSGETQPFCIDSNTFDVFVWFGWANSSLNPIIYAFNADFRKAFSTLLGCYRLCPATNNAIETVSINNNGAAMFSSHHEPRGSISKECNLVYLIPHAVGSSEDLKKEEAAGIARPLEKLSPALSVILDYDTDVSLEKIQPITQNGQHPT
T26 sequence (Q96LB0 whole entry): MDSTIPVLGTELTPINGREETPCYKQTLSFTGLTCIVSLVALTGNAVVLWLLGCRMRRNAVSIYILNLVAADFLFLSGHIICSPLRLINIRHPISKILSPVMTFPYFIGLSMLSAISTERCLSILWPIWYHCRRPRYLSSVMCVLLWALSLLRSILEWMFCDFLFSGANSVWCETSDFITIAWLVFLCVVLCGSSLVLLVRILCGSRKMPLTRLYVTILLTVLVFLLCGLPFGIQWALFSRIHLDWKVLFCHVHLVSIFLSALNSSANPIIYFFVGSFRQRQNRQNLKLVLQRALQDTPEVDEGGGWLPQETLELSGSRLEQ
T30 sequence (Q96LA9 whole entry): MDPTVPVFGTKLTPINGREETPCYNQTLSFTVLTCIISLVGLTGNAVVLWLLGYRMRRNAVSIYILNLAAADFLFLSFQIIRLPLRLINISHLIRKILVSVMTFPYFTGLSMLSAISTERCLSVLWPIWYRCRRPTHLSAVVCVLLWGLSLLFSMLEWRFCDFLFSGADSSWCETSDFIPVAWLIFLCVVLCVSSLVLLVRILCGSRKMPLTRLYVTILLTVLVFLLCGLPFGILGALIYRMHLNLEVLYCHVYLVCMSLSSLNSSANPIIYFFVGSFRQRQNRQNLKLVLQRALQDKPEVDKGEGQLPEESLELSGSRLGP
T27 sequence (Q14416 19-872): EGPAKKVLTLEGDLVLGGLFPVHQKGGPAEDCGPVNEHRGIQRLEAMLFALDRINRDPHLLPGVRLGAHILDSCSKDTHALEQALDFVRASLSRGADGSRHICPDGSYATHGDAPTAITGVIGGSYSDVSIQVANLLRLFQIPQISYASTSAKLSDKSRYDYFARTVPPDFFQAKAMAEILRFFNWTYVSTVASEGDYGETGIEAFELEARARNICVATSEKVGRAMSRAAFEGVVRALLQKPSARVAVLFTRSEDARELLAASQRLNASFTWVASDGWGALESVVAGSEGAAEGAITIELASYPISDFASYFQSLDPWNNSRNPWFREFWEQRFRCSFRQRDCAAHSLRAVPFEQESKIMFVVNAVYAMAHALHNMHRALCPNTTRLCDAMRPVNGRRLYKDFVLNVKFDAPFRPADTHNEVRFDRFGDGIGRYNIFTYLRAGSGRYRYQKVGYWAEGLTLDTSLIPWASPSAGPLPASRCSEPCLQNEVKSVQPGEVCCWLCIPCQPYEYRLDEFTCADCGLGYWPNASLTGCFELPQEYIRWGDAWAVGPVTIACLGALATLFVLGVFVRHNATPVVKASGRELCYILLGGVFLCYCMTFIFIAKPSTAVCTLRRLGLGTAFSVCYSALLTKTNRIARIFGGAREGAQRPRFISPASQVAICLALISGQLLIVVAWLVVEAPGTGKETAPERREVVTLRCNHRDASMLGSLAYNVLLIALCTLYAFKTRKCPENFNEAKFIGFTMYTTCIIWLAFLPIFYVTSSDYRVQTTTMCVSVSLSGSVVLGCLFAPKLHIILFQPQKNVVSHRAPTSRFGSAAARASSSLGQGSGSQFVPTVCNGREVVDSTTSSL
T28 sequence (O15354 27-613): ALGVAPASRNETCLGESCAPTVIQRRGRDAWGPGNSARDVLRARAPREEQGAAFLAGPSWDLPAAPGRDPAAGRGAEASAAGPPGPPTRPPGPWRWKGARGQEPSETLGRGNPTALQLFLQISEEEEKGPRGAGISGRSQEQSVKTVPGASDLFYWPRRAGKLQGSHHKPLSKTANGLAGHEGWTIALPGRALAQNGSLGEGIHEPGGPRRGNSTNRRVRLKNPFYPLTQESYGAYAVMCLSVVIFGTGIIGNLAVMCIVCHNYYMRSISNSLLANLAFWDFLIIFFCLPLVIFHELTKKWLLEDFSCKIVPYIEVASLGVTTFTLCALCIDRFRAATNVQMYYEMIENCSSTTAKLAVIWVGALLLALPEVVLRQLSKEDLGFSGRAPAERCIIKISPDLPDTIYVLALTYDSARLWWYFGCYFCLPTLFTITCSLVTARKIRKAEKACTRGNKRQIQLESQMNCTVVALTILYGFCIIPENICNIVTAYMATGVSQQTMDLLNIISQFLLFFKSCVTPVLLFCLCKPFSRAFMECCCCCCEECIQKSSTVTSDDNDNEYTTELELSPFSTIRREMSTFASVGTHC
T1 sequence (Q96P67 whole entry): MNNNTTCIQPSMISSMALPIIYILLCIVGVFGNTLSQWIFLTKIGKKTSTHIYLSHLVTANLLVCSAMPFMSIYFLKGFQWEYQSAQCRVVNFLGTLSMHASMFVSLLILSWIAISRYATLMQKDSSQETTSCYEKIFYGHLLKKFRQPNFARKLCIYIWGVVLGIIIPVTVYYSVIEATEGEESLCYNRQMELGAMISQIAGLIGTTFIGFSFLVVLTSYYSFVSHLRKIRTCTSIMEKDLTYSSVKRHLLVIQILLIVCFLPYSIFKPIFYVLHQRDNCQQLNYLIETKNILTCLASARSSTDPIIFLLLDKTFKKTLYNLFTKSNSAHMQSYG

Structure (SMILES) | GPCR activation (heatmap value) (GPR82) | GPCR activation (heatmap value) (GPR156) | GPCR activation (heatmap value) (GRM8) | GPCR activation (heatmap value) (MAS1L) | GPCR activation (heatmap value) (GPR44) | GPCR activation (heatmap value) (GPR111) | GPCR activation (heatmap value) (PTGER2) | GPCR activation (heatmap value) (DRD4) | GPCR activation (heatmap value) (MC1R) | GPCR activation (heatmap value) (CCR8) | GPCR activation (heatmap value) (MC4R) | GPCR activation (heatmap value) (CHRM4) | GPCR activation (heatmap value) (PTGDR) | GPCR activation (heatmap value) (CXCR1) | GPCR activation (heatmap value) (P2RY6) | GPCR activation (heatmap value) (GPR110) | GPCR activation (heatmap value) (PTH1R) | GPCR activation (heatmap value) (GPR132) | GPCR activation (heatmap value) (GPR22) | GPCR activation (heatmap value) (MRGPRG) | also measured
CC(C)Cc1ncc(CCCCNC(=N)N)[nH]c1=O [3-Homo] | -0.5831 | 0.2712 | 0.556 | 0.1505 | 0.02511 | -0.06522 | -0.3082 | -0.04181 | -0.8565 | -1.739 | -0.9791 | 0.08984 | 0.1368 | 0.5406 | -0.2248 | -1.142 | -0.1159 | 0.4638 | -1.099 | -0.5195 | GPCR activation (heatmap value) (CXCR4): 0.1574; GPCR activation (heatmap value) (SCTR): -0.8565; GPCR activation (heatmap value) (DRD1): 0.1434; GPCR activation (heatmap value) (GPR161): 0.03788; GPCR activation (heatmap value) (HTR2C): 0.3471; GPCR activation (heatmap value) (MRGPRX3): -1.005; GPCR activation (heatmap value) (GRM2): -1.403; GPCR activation (heatmap value) (GPR37): -0.008314; GPCR activation (heatmap value) (HTR7): 0.09912; GPCR activation (heatmap value) (MRGPRX4): 0.4562; GPCR activation (heatmap value) (ADRA1A): -0.07966; GPCR activation (heatmap value) (LPAR2): 0.05246; GPCR activation (heatmap value) (GLP1R): 0.1789; GPCR activation (heatmap value) (GPR141): 0.2402; GPCR activation (heatmap value) (HTR2B): -0.5052; GPCR activation (heatmap value) (DRD5): -0.03134
CC(C)Cc1ncc(CCCNC(=N)N)[nH]c1=O [compound 3] | 0.0221 | 0.1542 | -0.7817 | -0.3942 | 0.23 | -1.0133 | -0.3243 | 0.4609 | -1.487 | -0.8888 | 0.1054 | 0.4059 | 0.8064 | 0.1868 | 0.4506 | 0.3323 | 0.5796 | 0.3578 | -1.5748 | -0.5206 | GPCR activation (heatmap value) (CXCR4): -0.06133; GPCR activation (heatmap value) (SCTR): -0.3327; GPCR activation (heatmap value) (DRD1): 0.8634; GPCR activation (heatmap value) (GPR161): 0.1774; GPCR activation (heatmap value) (HTR2C): 0.7228; GPCR activation (heatmap value) (MRGPRX3): -1.319; GPCR activation (heatmap value) (GRM2): -1.186; GPCR activation (heatmap value) (GPR37): -0.4356; GPCR activation (heatmap value) (HTR7): -0.07329; GPCR activation (heatmap value) (MRGPRX4): 0.07015; GPCR activation (heatmap value) (ADRA1A): -0.2156; GPCR activation (heatmap value) (LPAR2): -0.4851; GPCR activation (heatmap value) (GLP1R): 0.3036; GPCR activation (heatmap value) (GPR141): -0.1192; GPCR activation (heatmap value) (HTR2B): -0.6262; GPCR activation (heatmap value) (DRD5): 1.05
